This passage reports IC50 and melting point results from patent US7678787B2, “Pyrrolobenzodiazepine pyridine carboxamides and derivatives as follicle-stimulating hormone receptor antagonists” (Wyeth, priority 2005, dated 2010).

Data set [1] has as its target T1, human FSH receptor (Homo sapiens, UniProt P23945).
T1 construct: host or cells: CHO-K1 (CHO FSH-R 6CRE-Luc, 1D7 cells)
T1 sequence (P23945 18-695): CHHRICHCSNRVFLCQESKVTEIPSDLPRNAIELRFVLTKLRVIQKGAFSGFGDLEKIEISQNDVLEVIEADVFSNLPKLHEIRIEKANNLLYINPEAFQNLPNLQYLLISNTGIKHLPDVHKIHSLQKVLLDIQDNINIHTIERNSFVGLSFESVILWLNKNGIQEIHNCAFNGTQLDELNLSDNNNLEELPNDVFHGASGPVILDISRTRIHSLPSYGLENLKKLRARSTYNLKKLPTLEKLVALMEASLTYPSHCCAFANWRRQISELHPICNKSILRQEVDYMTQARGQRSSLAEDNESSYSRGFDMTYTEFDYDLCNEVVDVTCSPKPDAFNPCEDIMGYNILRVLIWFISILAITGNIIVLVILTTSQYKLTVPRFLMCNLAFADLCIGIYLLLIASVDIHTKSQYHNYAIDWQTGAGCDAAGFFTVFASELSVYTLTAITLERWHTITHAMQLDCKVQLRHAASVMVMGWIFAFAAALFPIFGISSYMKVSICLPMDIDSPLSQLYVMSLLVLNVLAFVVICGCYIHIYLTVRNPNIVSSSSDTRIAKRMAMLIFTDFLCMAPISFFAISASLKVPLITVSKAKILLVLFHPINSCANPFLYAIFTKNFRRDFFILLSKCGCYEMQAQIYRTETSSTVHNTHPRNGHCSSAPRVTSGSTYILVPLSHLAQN
Briefly: FSH receptor-dependent CRE-luciferase reporter gene assay (CHO FSH-R 6CRE-Luc cells). The data set is classed as cell-based. Conditions: dose-response format in presence of EC50 of purified human FSH; * n=3, ** n=2 averages. The source says:
FOLLICLE-STIMULATING HORMONE RECEPTOR-DEPENDENT CRE-LUCIFERASE REPORTER GENE ASSAY FOR THE IDENTIFICATION OF FOLLICLE-STIMULATING HORMONE (FSH) ANTAGONISTS
A Chinese hamster ovarian cell line that stably produces the human FSH receptor and a luciferase reporter gene regulated by cAMP response elements was used to identify and determine the relative potencies of human FSH receptor antagonists. See for example, Kelton, C. A., et al. Mol. Cell. Endocrinol. 89:141-151 (1992), Tilly, J. L., et al. Endocrinology 131:799-806(1992), and George, S. E., et al. J. Biomol. Screening 2:235-240 (1997).
Compound Vehicle: Stock compounds were solubilized in an appropriate vehicle, e.g., phosphate buffered saline (PBS) or dimethyl sulfoxide (DMSO), at 30 mM. The compounds subsequently were diluted in DMSO to working dilutions of 1 and 20 or 30 mM for 2-dose testing format and 1 μM-10 mM for dose-response format. The DMSO dilutions were diluted 500-fold in sterile growth medium [D-MEM/F-12 (GIBCO/BRL; Grand Island, N.Y.) containing 15 mM HEPES, 2 mM l-glutamine, pyridoxine hydrochloride, phenol red and 5% FETALCLONE® II (HyClone Laboratories, Inc; Logan, Utah), 0.2% DMSO, 100 units penicillin G/ml, and 100 μg streptomycin sulfate/ml (GIBCO/BRL)]. The concentration of the vehicle in each of the compound dilutions was the same.
Positive Controls: Purified human FSH (>98%) was purchased from Cortex Biochem, Inc. (San Leandro, Calif.) and 3-[(2S*,5R*)-5-{[2-(1H-Indol-3-yl)-ethylcarbamoyl]-methyl}-4-oxo-2-(5-phenylethynyl-thiophen-2-yl)-thiazolidin-3-yl]-benzamide (an FSH-R thiazolidinone antagonist) was prepared by processes described by R. A. Scheuerman et al. in U.S. Pat. No. 6,426,357 (Affymax).
The CHO FSH-R 6CRE-Luc cells (1D7 cells) were obtained from Affymax (Palo Alto, Calif.). These Chinese hamster ovary cells (CHO-K1) were engineered genetically to stably express the recombinant human FSH receptor gene and a luciferase reporter gene under the regulation of 6 copies of a cAMP response element. The cells were plated one day prior to treatment into 96-well white opaque plates at a density of 50,000 cells/100 μl/well in growth medium. On the day of treatment, the growth medium was removed from the wells by aspiration and 50 μl of fresh growth medium was added to each well. The cells were incubated at 37° C. in a humidified incubator with 5% CO2/95% air.
The treated cells were incubated for 4 hours at 37° C. in a humidified incubator with 5% CO2/95% air. At the end of the incubation period, luciferase activity was measured by chemiluminescence using a commercially available kit (LucScreen, Tropix, Inc., Bedford, Mass.) according to the manufacturer's specifications, except that Buffer 1 and Buffer 2 were mixed together in equal proportion prior to the addition of 100 μl of the combined reagents to each well. Chemiluminescence was detected using a luminometer (EG & G Berthold Microlumat LB 96 P, Wallac, Gaithersburg, Md.) with chemiluminescence measured for 1 sec/well. Background luminescence was measured for each well prior to the addition of the LucScreen reagent.
In the 96-well 2-dose format, each compound was tested in duplicate at each dose. […] One plate was used to test a maximum of 22 compounds.
The EC50 of purified human FSH alone was tested in triplicate with each test compound. The doses chosen to test each compound were extrapolated from the initial 2-dose screening process. Along with the test compounds, purified human FSH also was tested in a dose response (0.03, 0.1, 0.3, 1, 3, 10, and 30 ng/ml) for a positive control and quality control. One plate was used for 3 test compounds and the FSH positive control.
Luciferase activity is expressed as relative light units/sec/well. Luciferase activity in antagonist was compared to the appropriate negative and positive controls. For 2-dose testing, results are reported as luciferase activity and are expressed as percent inhibition of the response obtained from the EC50 of FSH.

Structures can show the parent of a compound that is named as a salt. A value given as a limit tells only on which side of the number the result lay.

For `O=C(O)c1ccccc1-c1ccc(C(=O)N2Cc3ccc(C(=O)NCc4cccnc4)n3Cc3ccccc32)cc1` [Example 65, 4′-{[3-{[(PYRIDIN-3-YLMETHYL)AMINO]CARBONYL}-5H-PYRROLO[2,1-C][1,4]BENZODIAZEPIN-10(11H)-YL]CARBONYL}-1,1′-BIPHENYL-2-CARBOXYLIC ACID], the melting point lay within 189 to 191 °C. Further, the half-inhibitory concentration (IC50) in data set [1] is above 30 µM. In the same order, the values of `O=C(NCc1cccnc1)c1ccc2n1Cc1ccccc1N(C(=O)c1ccc(-c3ccccc3Cc3nnn[nH]3)cc1)C2` [Example 19] are 164 to 167 °C and 2.4 µM. In the same order, the values of `O=C(NCc1cccnc1)c1ccc2n1Cc1ccccc1N(C(=O)c1ccc(-c3ccccc3CN3CCCC3)cc1)C2` [Example 41] are 210 to 212 °C and 25.1 µM.

As to `CSc1ccccc1-c1ccc(C(=O)N2Cc3ccc(C(=O)NCc4cccnc4)n3Cc3ccccc32)cc1` (hydrate or solvate) [Example 14, 10-{[2′-(METHYLTHIO)-1,1′-BIPHENYL-4-YL]CARBONYL}-N-(PYRIDIN-3-YLMETHYL)-10,11-DIHYDRO-5H-PYRROLO[2,1-C][1,4]BENZODIAZEPINE-3-CARBOXAMIDE 0.67 HYDRATE], the melting point was 172 to 175 °C. `O=C(NCc1cccnc1)c1ccc2n1Cc1ccccc1N(C(=O)COc1ccc(Cl)cc1)C2` [Example 138]: the melting point was in the range of 169 to 171 °C. In data set [1], the IC50 came to 15.8 µM. The compound `COc1cc(C(=O)N2Cc3ccc(C(=O)NCc4c(CO)cnc(C)c4O)n3Cc3ccccc32)ccc1-c1ccccc1C` (as salt: hydrochloride) (hydrate or solvate) returned a melting point of 179 °C. For `O=C(NCc1cccnc1)c1ccc2n1Cc1ccccc1N(C(=O)Cc1ccc(Cl)cc1)C2` [Example 142], the melting point was determined as 83 °C. In addition, the half-inhibitory concentration (IC50) in data set [1] came to 18.5 µM. As for `O=C(NCc1cccnc1)c1ccc2n1Cc1ccccc1N(C(=O)c1ccc(-c3nccs3)cc1)C2` [Example 111], the melting point is 178 to 179 °C. The IC50 in data set [1] was found to be 5.48 µM. Compound `O=C(NCc1cccnc1)c1ccc2n1Cc1ccccc1N(C(=O)c1ccc3c(c1)Cc1ccccc1-3)C2` [Example 147] yielded a melting point of 116 to 119 °C.

For the compound `NS(=O)(=O)c1ccccc1-c1ccc(C(=O)N2Cc3ccc(C(=O)NCc4cccnc4)n3Cc3ccccc32)cc1` [Example 16], the melting point lay in the range of 153 to 156 °C. Also, the half-inhibitory concentration (IC50) in data set [1] is 0.994 µM.

`O=C(NCc1cccnc1)c1ccc2n1Cc1ccccc1N(C(=O)c1ccc(Cl)c(Cl)c1)C2` [Example 81]: the melting point was 192 °C. In addition, in data set [1], the half-maximal inhibitory concentration (IC50) came out at 18.4 µM. In the same order, the values of `CNC(=O)c1ccccc1-c1ccc(C(=O)N2Cc3ccc(C(=O)NCc4cccnc4)n3Cc3ccccc32)cc1` [Example 69] are 221 to 224 °C and 14.5 µM. `Cc1cc(Cl)ccc1OCC(=O)N1Cc2ccc(C(=O)NCc3cccnc3)n2Cc2ccccc21` [Example 139] registered a melting point of 168 °C. Also, the 50% inhibitory concentration (IC50) in data set [1] came to 9.86 µM. Compound `CC(C)(C)OC(=O)NCc1ccc(C(=O)N2Cc3ccc(C(=O)NCc4cccnc4)n3Cc3ccccc32)cc1` [Example 103] registered a melting point of 171 °C. In addition, in data set [1], the 50% inhibitory concentration (IC50) was above 30 µM. Turning to `O=C(NCc1cccnc1)c1ccc2n1Cc1ccccc1N(Cc1ccc(-c3ccccc3)cc1)C2` [Example 73], the melting point was 161 to 165 °C (dec.). Also, in data set [1], the 50% inhibitory concentration (IC50) was determined as 2 µM. Compound `Cc1ncc(CNC(=O)c2ccc3n2Cc2ccccc2N(C(=O)CSc2ccc(Br)cc2)C3)c(CO)c1O` had a melting point of 199 to 200 °C. Consider `O=C(NCc1cccnc1)c1ccc2n1Cc1ccccc1N(C(=O)c1ccc(F)cc1)C2` [Example 93], for which the melting point lay in the range of 171 to 173 °C. In addition, the 50% inhibitory concentration (IC50) in data set [1] is above 30 µM. Consider `Cc1cccc(C)c1-c1ccc(C(=O)N2Cc3ccc(C(=O)NCc4cccnc4)n3Cc3ccccc32)cc1` [Example 12], for which the melting point is 216 to 218 °C (dec.). Besides, in data set [1], the IC50 stood at 16.4 µM. As to `O=C(NCc1cccnc1)c1ccc2n1Cc1ccccc1N(C(=O)CSc1ccc(Br)cc1)C2` (as salt: hydrochloride) (hydrate or solvate) [Example 141], the melting point fell in the range of 136 to 137 °C.

Turning to `NS(=O)(=O)c1cc(C(=O)N2Cc3ccc(C(=O)NCc4cccnc4)n3Cc3ccccc32)ccc1N1CCOCC1` (hydrate or solvate) [Example 114, 10-[3-(AMINOSULFONYL)-4-MORPHOLIN-4-YLBENZOYL]-N-(PYRIDIN-3-YLMETHYL)-10,11-DIHYDRO-5H-PYRROLO[2,1-C][1,4]BENZODIAZEPINE-3-CARBOXAMIDE HEMIHYDRATE], the melting point fell in the range of 159 to 161 °C. `O=C(NCc1cccnc1)c1ccc2n1Cc1ccccc1N(C(=O)c1ccc3c(c1)OCO3)C2` [Example 96] came in with a melting point of 169 to 171 °C. Take `CN(C)C(=O)c1ccccc1-c1ccc(C(=O)N2Cc3ccc(C(=O)NCc4cccnc4)n3Cc3ccccc32)cc1`: the melting point fell in the range of 206 to 207 °C. With `O=C(NCc1cccnc1)c1ccc2n1Cc1ccccc1N(C(=O)c1cccc(F)c1)C2` [Example 78], the melting point was 101 °C. Further, the half-inhibitory concentration (IC50) in data set [1] worked out at 18.1 µM. Compound `CC(C)(C)OC(=O)c1ccccc1-c1ccc(C(=O)N2Cc3ccc(C(=O)NCc4cccnc4)n3Cc3ccccc32)cc1` [Example 64] showed a melting point of 163 to 165 °C. In data set [1], the IC50 was above 30 µM. On the same counts, the results for `COc1ccc(C(=O)N2Cc3ccc(C(=O)NCc4cccnc4)n3Cc3ccccc32)cc1` [Example 89] are 110 to 112 °C and 12.2 µM. In the same order, the values of `O=C(NCc1cccnc1)c1ccc2n1Cc1ccccc1N(C(=O)c1ccc(-c3ccncc3)cc1)C2` [Example 110] are 119 to 124 °C and 7.65 µM.
